In patent US20230310459A1, “NEUROACTIVE STEROIDS AND THEIR METHODS OF USE” (Sage Therapeutics, Inc., priority 2017, published 2023):

Assay: Phase 2 open-label study (Part A): plasma pharmacokinetics
Assay type: in vivo, human
Details: 30 mg oral solution once daily with food, N=13
Procedure: Compound 1 was provided as a 6 mg/mL stock aqueous solution, which was further diluted with sterile water to achieve the selected dose that was administered as an oral solution. Participants received an open label 30 mg Compound 1 oral dose administered at 8:00 PM (+/−15 minutes) with food on Days 1 through 14. Subjects who experienced drug-related moderate or severe adverse events (as judged by the study investigators) while receiving the 30 mg dose of study drug were to have their dose reduced to 20 mg for the remaining treatment period. Any subjects not tolerating a 20 mg dose were to be terminated from the study. Vital signs were collected daily. Other study procedures and plasma collection for PK parameters were conducted at various times during the 14-day open label treatment period (procedure details in the Supplemental Appendix). Treatment follow-up was conducted on an outpatient basis and included a follow-up visit at 1 week (21+/−1 day) and at 2 weeks (28+/−1 day) after the last dose of the study drug.
The primary endpoint of safety and tolerability of Compound 1 was assessed by the frequency and severity of adverse events, vital signs, changes in clinical laboratory measures, physical exams, electrocardiograms (ECGs), the Stanford Sleepiness Scale (SSS) score, and suicide ideation using the Columbia-Suicide Severity Rating Scale (C-SSRS, Supplemental Table 1). Secondary efficacy endpoints included: change from baseline in HAM-D total score, HAM-D response, defined as having a 50% or greater reduction from baseline in HAM-D total score, HAM-D remission, defined as having a HAM-D total score of ≤7, HAM-A change from baseline, and MADRS score change from baseline. The PK profile of Compound 1 was also determined from plasma samples.

C[C@@]1(O)CC[C@H]2[C@H](CC[C@@H]3[C@@H]2CC[C@]2(C)[C@@H](C(=O)Cn4cc(C#N)cn4)CC[C@@H]32)C1 [Compound 1, 1-(2-((3R,5R,8R,9R,10S,13S,14S,17S)-3-hydroxy-3,13-dimethylhexadecahydro-1H-cyclopenta[a]phenanthren-17-yl)-2-oxoethyl)-1H-pyrazole-4-carbonitrile]
Cavg ss, geometric mean (Day 7, steady state): 41.4 ng/mL | Cmax (human, plasma, Day 7, steady state, MDD subjects, read-out: Cmax, geometric mean): 101 ng/mL | AUC(0-t) (human, plasma, Day 7, steady state, read-out: AUC0-t, geometric mean): 992 ng·h/mL | AUC(0-inf) (human, plasma, Day 7, steady state, read-out: AUCinf, geometric mean): 1150 ng·h/mL | half-life (human, plasma, Day 7, read-out: T1/2, median (converted)): 10.3 h | Tmax (human, plasma, Day 7, read-out: Tmax, median): 1.1 h
